Source: US20230114207A1, “THE COMBINATION OF CYCLIN DEPENDENT KINASE 7 INHIBITOR AND IMMUNOTHERAPY FOR TREATMENT OF CANCER” (Dana-Farber Cancer Institute, Inc., priority 2019, published 2023)

Legend:
[1] = system: CDK1 and CDK2 T-loop phosphorylation; assay: Western blotting of CDK1 and CDK2 T-loop phosphorylation in SCLC lines; type: cell-based, mouse, human; conditions: representative panel of SCLC lines, 24 hours; 'as low as'
Protocol: Cells in culture were collected by centrifuging at 1,500 rpm and then washed with ice-cold PBS twice to completely remove residual medium. RIPA lysis buffer (Thermo Fisher Scientific, Cat #89900) supplemented with Halt™ Protease and Phosphatase Inhibitor Cocktail (Thermo Fisher Scientific, Cat #78440) was added to cell pellets to extract protein. Protein concentrations in lysates were measured by Pierce™ BCA Protein Assay Kit (Thermo Fisher Scientific, Cat #23225) and followed by the addition of SDS loading buffer (6×) and heated at 95° C. for 5 min. Equal amount of protein samples was subjected to 4-20% gradient gel SDS-PAGE and transferred to a nitrocellulose membrane (Bio-Rad, Cat #1704271). The membrane was blocked in Odyssey® Blocking Buffer (LI-COR, Cat #927-50003) at room temperature for 1 hour and incubated with appropriate antibodies at 4° C. overnight (Key Resources Table). Antibodies were diluted in TBST (TBS with 0.1% Tween) with 20% LI-COR Odyssey Blocking Buffer. On the next day, the membrane was washed with TBST (TBS with 0.1% Tween) four times and incubated with appropriate secondary antibodies (LI-COR, anti-Rabbit, Cat #925-32213; anti-Mouse, Cat #925-68072) at room temperature for 1 hour. Membranes were imaged using the LI-COR Odyssey® Imaging System.

[2] = system: RPP631 and GLC16 cells; assay: Immunofluorescence of γH2AX foci and micronuclei; type: cell-based, mouse, human
Protocol: Before fixation, cells in PBS were seeded for 30 min on 0.01% Poly-lysine coated coverslip. Cells were then fixed in 4% paraformaldehyde (Diluted the 32% paraformaldehyde in PBS, Electron Microscopy Sciences 15714) for 10 min at room temperature. Cells were washed three times for 5 min with 200 mM glycine containing PBS, followed by permeabilization with 0.3% Triton X-100 in PBS for 15 min. After blocking with 5% bovine serum albumin (BSA) in PBS for 1 hour, cells were incubated with primary antibody (γH2A.X, Cell signaling 9718, 1:200) diluted in a 5% BSA in PBS solution overnight at 4° C. After washing four times with PBS, cells were incubated with Alexa Fluor Plus 555 (Invitrogen A32732, 1: 500) secondary antibody for 1 hour and washed three times with PBS. Cell nuclei were counterstained with DAPI (Biolengend 422801, diluted to 600 nM in PBS) for 5 min. Cells were washed two more times in PBS before mounting with Fluorescence Mounting Medium (Dako, S3023). Images were acquired using Zeiss 880 Laser Scanning Confocal Microscope and were processed by FIJI (NIH). Micronucleus were identified manually by distinct DAPI staining outside the main nucleus.

[3] = system: RPP631 cells; assay: Bulk RNA-sequencing and GSEA; type: cell-based, mouse; conditions: 48 hr
Protocol: Paired-end reads were aligned to mouse mm10 genome using STAR (v2.5.2b). Reads with good mapping quality (MAPQ>30) that aligned to genomic exons were counted using featureCounts (mm10 Ensembl 93) to generate a table with counts for each gene. Differential gene expression analysis was performed using the R package DESeq2 using the lfcShrink function. […] Gene set enrichment analysis (GSEA) was performed on a list of genes ranked from high to low DESeq2 estimated fold-change using the GSEAPreRanked function with enrichment statistic classic and 1000 permutations.

[4] = In vivo toxicity evaluation in C57BL/6 mice
Protocol: For evaluation of in vivo toxicity of YKL-5-124, a dose-escalating study from 2.5 mg/kg to 15 mg/kg q.d. five times/week via intraperitoneal injection (i.p.) was tested in C57BL/6 mice. In vivo toxicities including body weight and blood cell counts including platelet, red blood cells and white blood cells were monitored. Similarly, a separate cohort was used to evaluate in vivo toxicity of combining YKL-5-124 and anti-PD-1 in C57BL/6 mice. For treatment studies, mice were evaluated by MRI imaging (Preclinical Imaging Laboratory, NYULH) to quantify lung tumor burden before for randomization and after drug treatment for efficacy evaluation. Mice were treated with either vehicle and isotype IgG (Control), anti-PD-1 200 μg/mouse (clone 29F.1A12), YKL-5-124 10 mg/kg, or combined anti-PD-1 and YKL-5-124 (Combo). YKL-5-124 was administered daily from Monday to Friday, and PD-1 antibody was administered three times a week (Monday, Wednesday, and Friday). For chemotherapy, cisplatin (5 mg/kg) was given on Day 1 and etoposide (10 mg/kg) on Day 1, 2, 3 every seven days per cycle for three cycles.

[5] = system: RPP GEMMs; assay: Treatment study in autochthonous RPP GEMMs; type: in vivo, mouse
Protocol: All animal studies were reviewed and approved by the Institutional Animal Care and Use Committee (IACUC) at the New York University Langone Health (NYULH) and Dana-Farber Cancer Institute (DFCI). From 6 weeks of age, mice were induced with adenovirus-Cre recombinase (Ad-Cre) by intratracheal intubation to allow cre-lox-mediated recombination of floxed Rb1, p53 and p130 alleles. For syngeneic orthotopic models, ultrasound-guided transthoracic injection was performed using 200,000 RPP631, RP or RPP-MYC cells in 30 μL PBS directly into the lung of 6 to S-week-old C57BL/6 (Jackson Laboratory, Stock No: 000664). For OT-IT cell assay, OT-I mice were purchased from the Jackson Laboratory (Stock No: 003S31). Both males and females mice were used and all mice were maintained in accordance with the respective NYULH and DFCI on the care, welfare, and treatment of laboratory animals. […]
Animals were anesthetized with isoflurane to perform MRI of the lung field using BioSpec USR70/30 horizontal bore system (Bruker) to scan 24 consecutive sections. Tumor volumes within the whole lung were quantified using 3-D slicer software to reconstruct MRI volumetric measurements as described previously. […]

## C=CC(=O)Nc1ccc(C(=O)Nc2n[nH]c3c2CN(C(=O)N[C@H](CN(C)C)c2ccccc2)C3(C)C)cc1 [YKL-5-124]
[1]
  concentrations robustly inhibiting CDK1 and CDK2 T-loop phosphorylation: ≥ 50 nM
[2]; RPP631 and GLC16
  percentages of cells containing micronuclei: considerably increased
[2]; after 48 hr
  γH2AX foci: significant increase
[3]
  expression of pro-inflammatory cytokines and chemokines incl. TNFα pathway components and Cxcl10 (heatmaps): increased expression
  genes within GSEA terms associated with cell cycle, mitosis and E2F targets: downregulated
[3]; compared with THZ1
  expression of SCLC SE-associated genes: little effect
[3]; three of the top five
  'Interferon gamma response', 'TNFα signaling' and 'Inflammatory response' Hallmarks signatures (GSEA): most positively regulated
[4]; C57BL/6, mouse, in vivo, ip
  well tolerated dose: up to 10 mg/kg
[4]; dose up to 10 mg/kg
  body weight and blood counts: no significant change
[5]; 3-week time point
  mice with more than 50% increase of tumor burden: none
[5]; RPP GEMMs
  median overall survival: 56 days
